Source: article PMC3973943, “Microwave-assisted synthesis of some hybrid molecules containing penicillanic acid or cephalosporanic acid moieties and investigation of their biological activities” (Medicinal Chemistry Research, 2013)

biological target: Jack bean urease (Canavalia ensiformis, UniProt P07374); assay: indophenol ammonia assay, […] nm; type: biochemical
Sequence (P07374 whole entry): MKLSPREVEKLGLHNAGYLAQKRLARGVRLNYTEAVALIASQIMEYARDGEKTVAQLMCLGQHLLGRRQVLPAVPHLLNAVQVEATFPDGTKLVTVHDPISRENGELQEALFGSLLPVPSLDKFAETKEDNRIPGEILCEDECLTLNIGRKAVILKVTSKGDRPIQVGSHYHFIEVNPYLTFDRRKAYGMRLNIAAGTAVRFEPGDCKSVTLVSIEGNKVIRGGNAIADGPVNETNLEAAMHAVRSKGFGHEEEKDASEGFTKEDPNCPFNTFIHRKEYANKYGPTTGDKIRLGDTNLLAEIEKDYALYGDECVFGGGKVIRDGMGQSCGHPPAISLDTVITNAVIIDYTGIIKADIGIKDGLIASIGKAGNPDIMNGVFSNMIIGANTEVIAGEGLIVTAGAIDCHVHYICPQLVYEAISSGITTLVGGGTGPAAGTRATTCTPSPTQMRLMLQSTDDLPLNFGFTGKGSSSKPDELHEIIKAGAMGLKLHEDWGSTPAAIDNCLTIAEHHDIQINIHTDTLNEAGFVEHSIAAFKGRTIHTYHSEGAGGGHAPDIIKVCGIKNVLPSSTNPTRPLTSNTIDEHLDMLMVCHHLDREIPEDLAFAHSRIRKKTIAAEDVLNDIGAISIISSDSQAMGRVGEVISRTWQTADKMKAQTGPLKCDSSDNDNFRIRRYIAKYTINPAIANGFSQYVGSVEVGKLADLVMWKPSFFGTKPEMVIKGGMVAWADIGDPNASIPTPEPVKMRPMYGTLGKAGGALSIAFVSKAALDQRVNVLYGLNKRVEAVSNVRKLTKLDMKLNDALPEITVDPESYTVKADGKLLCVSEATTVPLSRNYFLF

Structure (SMILES)	IC50
NC(N)=S [Thiourea, reference compound]	717 µM
CCOC(=O)N1CCN(c2ccc(NCc3nn(CN[C@@H]4C(=O)N5C(C(=O)O)=C(COC(C)=O)CS[C@H]45)c(=S)n3-c3ccc(F)cc3)cc2F)CC1 [compound 15, ({[(6R,7R)-3-[(Acetyloxy)methyl]-7-({[3-[({4-[4-(ethoxycarbonyl)piperazin-1-yl]-3-fluorophenyl}amino)methyl]-4-(4-fluorophenyl)-5-thioxo-4,5-dihydro-1H-1,2,4-triazol-1-yl]methyl}amino)-8-oxo-5-thia-1-azabicyclo[4.2.0]oct-2-en-2-yl]carbonyl}oxy)triethyl ammonium]	6.15 µM
CCOC(=O)N1CCN(c2ccc(NCc3nn(CN[C@@H]4C(=O)N5[C@@H]4SC(C)(C)[C@@H]5C(=O)O)c(=S)n3-c3ccccc3)cc2F)CC1 [compound 17, [({(5R,6R)-6-[({3-[({4-[4-(Ethoxycarbonyl)piperazin-1-yl]-3-fluorophenyl}amino)methyl]-4-phenyl-5-thioxo-4,5-dihydro-1H-1,2,4-triazol-1-yl}methyl)amino]-3,3-dimethyl-7-oxo-4-thia-1-azabicyclo[3.2.0]hept-2-yl}carbonyl)oxy](triethyl)ammonium]	66.3 µM
